According to the NIST ThermoML archive (doi:10.1021/acs.jced.7b00875):
± gives the expanded uncertainty stated by the source.

Experiments:
[1] = Liquid, Ebulliometric method (Recirculating still)
[2] = refractive index (Na D-line) (dimensionless); conditions: 293.15 K; 101.33 kPa; Liquid; Standard Abbe refractometry

Compound | vapor or sublimation pressure ([1]; 323.21 K) [kPa] | vapor or sublimation pressure ([1]; 328.17 K) [kPa] | vapor or sublimation pressure ([1]; 333.21 K) [kPa] | vapor or sublimation pressure ([1]; 338.17 K) [kPa] | vapor or sublimation pressure ([1]; 343.21 K) [kPa] | vapor or sublimation pressure ([1]; 348.16 K) [kPa] | refractive index [2]
CCO [ethanol] | 29.58 ± 0.97 | 37.53 ± 0.98 | 47.04 ± 1 | 58.6 ± 1.1 | 72.39 ± 1.1 | 88.83 ± 1.1 | 1.3616 ± 0.002
CCCCCCCCC [nonane] | 2.417 ± 0.92 |  | 4.027 ± 0.92 |  | 6.331 ± 0.92 |  | 1.4074 ± 0.002
CCCCCCCCCC [decane] |  | 1.18 ± 0.92 |  | 1.93 ± 0.92 |  | 3.24 ± 0.92 | 1.4122 ± 0.002
